Test system: adult T. muris
Assay: Ex vivo adult T. muris automated motility assay (primary/secondary screen at 100 μM and dose-response)
Design: species or system Trichuris muris
Conditions: for PRIMARY_SCREEN_MINUS_LOG_FOLD_CHANGE_MOVEMENT: primary screen; for PRIMARY_SCREEN_MINUS_LOG_FOLD_CHANGE_MOVEMENT / SECONDARY_SCREEN_MINUS_LOG_FOLD_CHANGE_MOVEMENT: adult T. muris motility; for SECONDARY_SCREEN_MINUS_LOG_FOLD_CHANGE_MOVEMENT: secondary screen
Procedure: Severe combined immune deficiency (SCID) mice were bred in the Biological Services Facility at the University of Manchester. Both male and female SCID mice were infected with a high dose of 200 infective embryonated T. muris eggs via oral gavage. At day 35 post-infection, groups of 5 mice were killed and their […] colons removed. Guts were opened longitudinally, washed with pre-warmed Roswell Park Memorial Institute (RPMI) 1640 media supplemented with penicillin (500U/ml) and streptomycin (500μg/ml) and adult T. muris worms gently removed using fine forceps. Worms removed from SCID mice were maintained in RPMI-1640 media supplemented with penicillin (500U/ml) and streptomycin (500μg/ml) at approximately 37°C and studied on the same day. Using fine forceps, individual live worms were placed into 96 well plates containing 75μl of RPMI-1640 medium supplemented with penicillin (500U/ml) and streptomycin (500μg/ml) plus 1% final concentration of DMSO or compound dissolved in DMSO. In the primary screen the test compound concentration was 100μM. Plates were then incubated at 37°C, 5% CO2, and motility was analysed after 24 hours. Worm movement was quantified using an automated motility assay. This system gives an estimate of worm movement in each well by thresholding and quantifying pixel intensity variance over time. An earlier version of this system has been previously described. One adult T. muris worm was used per well, with one well per compound in each replicate of the primary screen. The primary screen was repeated each week for a period of four weeks giving four independent biological replicates from separate parasite batches for each compound. Dose-response curves were calculated with the four factor log-logistic model using the R package drc. The primary screen was carried out at 100μM final concentration. Assay plates were assigned unique IDs and statistical analysis was performed without knowledge of compound identities using R scripts. Once hit wells were identified, well/plate positions were mapped to compound identities using DataWarrior [28]. […] Compounds identified as having encouraging activity from the DMSO solution samples were then resynthesized for confirmatory testing.

[1] = combined primary and secondary screen minus log fold change in movement, adult T. muris, 100 μM

Structure (SMILES)	COMBINED_SCREEN_ACTIVITY [1]	PRIMARY_SCREEN_MINUS_LOG_FOLD_CHANGE_MOVEMENT (100 μM)	COMBINED_SCREEN_ACTIVITY (adult T. muris motility screen at 100 μM, combines primary and secondary screen minus log fold change in movement (mean where both are given))	SECONDARY_SCREEN_MINUS_LOG_FOLD_CHANGE_MOVEMENT (100 μM)
COCCN1C(=O)COCc2ccc(-c3cccc(C(C)C)c3)cc21 [Compound 66]	7.026	7.026		
COCCN1C(=O)COCc2ccc(-c3cccc(F)c3)cc21 [Compound 38]	-1.255	-1.255		
COc1ccc(F)cc1-c1ccc2c(c1)N(Cc1ccccc1)C(=O)COC2 [Compound 129]	3.716	3.716		
N#Cc1cccc(-c2ccc3c(c2)N(CCN2CCOCC2)C(=O)COC3)c1 [Compound 132]	-2.183	-2.183		
CC(C)N1C(=O)COCc2ccc(Br)cc21 [Compound 19]	-1.507	-1.507		
COC(=O)c1cccc(-c2ccc3c(c2)N(Cc2cccc(OC)c2)C(=O)COC3)c1 [Compound 183]		-1.271	-1.271	
O=C1COCc2ccc(-c3cccnc3)cc2N1Cc1ccc(C(F)(F)F)cc1 [Compound 159]	11.6591	10.6993		12.6188
O=C1COCc2cc(Br)ccc2N1CCN1CCOCC1 [Compound 91]	-2.221	-2.221		
Cn1cc(-c2ccc3c(c2)N(Cc2ccc(C(F)(F)F)cc2)C(=O)COC3)cn1 [Compound 166]	11.5841	10.5493		12.6188
Cn1cc(-c2ccc3c(c2)COCC(=O)N3CC2CCCCC2)cn1 [Compound 67]	7.315	2.012		12.6188
CN1C(=O)COCc2c(-c3cccc(CO)c3)cccc21 [Compound 15]	-0.7825	-0.7825		
O=C1COCc2cc(Br)ccc2N1CC1CC1 [Compound 26]	-0.588	-0.588		
COc1cc(F)ccc1-c1ccc2c(c1)COCC(=O)N2Cc1cc(F)cc(F)c1 [Compound 182]	-0.8244	-0.8244		
COc1cccc(CN2C(=O)COCc3cc(-c4cccc(F)c4)ccc32)c1 [Compound 130]	0.2069	0.2069		
O=C1COCc2ccc(-c3cccnc3)cc2N1CC1CCCCC1 [Compound 61]	11.7341	10.8493		12.6188
CN1C(=O)COCc2cc(-c3cccc(C#N)c3)ccc21 [Compound 10]	-1.704	-1.704		
COCCN1C(=O)COCc2ccc(-c3ccc(F)cc3OC)cc21 [Compound 77]	0.2033	0.2033		
Cc1ccccc1CN1C(=O)COCc2ccc(Br)cc21 [Compound 81]	11.5466	10.4743		12.6188
O=C1COCc2cc(-c3ccncc3)ccc2N1CCc1ccccc1 [Compound 75]	2.679	2.679		
O=C1COCc2cc(Br)ccc2N1CCc1ccccc1 [Compound 79]	-0.767	-0.767		
CN1C(=O)COCc2cc(Br)ccc21 [Compound 6]	-1.038	-1.038		
COc1ccc(F)cc1-c1ccc2c(c1)N(CCN1CCOCC1)C(=O)COC2 [Compound 162]	-1.305	-1.305		

Structure (SMILES)	COMBINED_SCREEN_ACTIVITY [1]	PRIMARY_SCREEN_MINUS_LOG_FOLD_CHANGE_MOVEMENT (100 μM)	COMBINED_SCREEN_ACTIVITY (adult T. muris motility screen at 100 μM, combines primary and secondary screen minus log fold change in movement (mean where both are given))	SECONDARY_SCREEN_MINUS_LOG_FOLD_CHANGE_MOVEMENT (100 μM)
COc1ccccc1-c1ccc2c(c1)COCC(=O)N2CCc1ccccc1 [Compound 119]	-0.8266	-0.8266		
Cc1ccccc1-c1ccc2c(c1)N(CCN1CCOCC1)C(=O)COC2 [Compound 112]	-1.303	-1.303		
COc1cccc(CN2C(=O)COCc3cc(-c4cnn(C)c4)ccc32)c1 [Compound 105]	-0.2739	-0.55		0.002295
COc1ccccc1-c1ccc2c(c1)N(CCc1ccccc1)C(=O)COC2 [Compound 121]	1.0336	1.0336		
COCCN1C(=O)COCc2ccc(-c3cccc(O)c3)cc21 [Compound 37]	-1.788	-1.788		
CC(C)c1cccc(-c2ccc3c(c2)N(CCN2CCOCC2)C(=O)COC3)c1 [Compound 152]	5.995	5.995		
CN1C(=O)COCc2c(-c3ccc(Cl)cc3)cccc21 [Compound 22]	-0.8438	-0.8438		
O=C1COCc2ccc(Br)cc2N1CCN1CCOCC1 [Compound 92]	-1.293	-1.293		
O=C1COCc2cc(-c3cccc(O)c3)ccc2N1Cc1ccccc1 [Compound 78]	-0.318	-0.318		
CN1C(=O)COCc2c(-c3cccc(O)c3)cccc21 [Compound 9]	-1.134	-1.134		
O=C1COCc2cc(-c3cccc(O)c3)ccc2N1CCc1ccccc1 [Compound 97]	-0.7944	-0.7944		
O=C1COCc2cc(-c3ccncc3)ccc2N1Cc1ccc2c(c1)OCO2 [Compound 124]	0.4678	0.4678		
COc1cc(F)ccc1-c1ccc2c(c1)COCC(=O)N2CCc1ccccc1 [Compound 144]	-1.769	-1.769		
CC(=O)Nc1cccc(-c2ccc3c(c2)N(CC2CCCCC2)C(=O)COC3)c1 [Compound 149]	6.083	10.5493		1.617
O=C1COCc2ccc(-c3cnc4ccccc4c3)cc2N1CCN1CCOCC1 [Compound 173]	0.2312	0.2312		
O=C1COCc2ccc(-c3cccc(F)c3)cc2N1CCN1CCOCC1 [Compound 116]	0.5451	0.5451		
O=C(O)c1cccc(-c2ccc3c(c2)N(Cc2ccccc2)C(=O)COC3)c1 [Compound 117]	-1.457	-1.457		
COc1ccc(F)cc1-c1ccc2c(c1)COCC(=O)N2CCN1CCOCC1 [Compound 163]	-0.1485	-0.1485		
COCCN1C(=O)COCc2ccc(Br)cc21 [Compound 31]	-1.486	-1.486		
COCCN1C(=O)COCc2ccc(-c3ccccc3OC)cc21 [Compound 45]	-1.409	-1.409		
COCCN1C(=O)COCc2cc(Br)ccc21 [Compound 30]	0.3958	0.3958		

From article PMC5321434, “Dihydrobenz[e][1,4]oxazepin-2(3H)-ones, a new anthelmintic chemotype immobilising whipworm and reducing infectivity in vivo” (PLoS Neglected Tropical Diseases, 2017)
